Test results taken from patent US20260022089A1, “QUINONE-DERIVED COMPOUNDS AND USE THEREOF AGAINST LEISHMANIA SPP” (Universidad de la Laguna, priority 2022, published 2026).
In brackets after ≈: the same amount, converted by molar mass. Where two headings read alike, the source gives them in different places.

What was measured:
[1] = test system: Leishmania amazonensis promastigotes; assay: Leishmanicidal activity, alamarBlue fluorescence, 72 hours incubation with promastigotes; assay type: cell-based; conditions: for SI (CC50/IC50): ratio of macrophage CC50 to L. amazonensis IC50
[2] = Toxicity against mouse cells, alamarBlue assay, 24 hours; assay type: cell-based; conditions: murine macrophages, read-out: Macrophage Toxicity CC50
Procedure: To assess toxicity, all compounds were evaluated against mouse cells for 24 hours by means of the alamarBlue assay. […] The higher the value of CC50, the greater the amount of compound required to damage mouse cells, therefore, the lower the toxicity of the compound.

[3] = Leishmania amazonensis, promastigotes, 72 hours, alamarBlue, read-out: L. amazonensis IC50

| SMILES | IC50 [1] | IC50 ([1]; Leishmania amazonensis, read-out: IC50) | SI (CC50/IC50) [1] | CC50 at 24 h [2] | IC50 [1, 3] | leishmanicidal activity ([1]; statement in words) |
| --- | --- | --- | --- | --- | --- | --- |
| CCCCCCCCCCCCCCCCOP(=O)([O-])OCC[N+](C)(C)C [Miltefosine, miltefosine, reference compound] | 2.64 µg/mL (≈ 6.48 µM) | 2.64 µg/mL (≈ 6.48 µM) | 11.14 | 29.4 ± 1.25 µg/mL (≈ 72.2 µM) | – | – |
| CC1=CC(=O)C=C(C2CCCC2)C1=O [SG-003, 2-cyclopentyl-6-methylcyclohexa-2,5-diene-1,4-dione] | – | – | 13.30 | 4.53 ± 0.9 µg/mL (≈ 23.8 µM) | 0.34 ± 0.01 µg/mL (≈ 1.79 µM) | – |
| CC1=CC(=O)C(C2CCCC2)=CC1=O [SG-005, 2-cyclopentyl-5-methylcyclohexa-2,5-diene-1,4-dione] | – | – | 5.50 | 0.72 ± 0.01 µg/mL (≈ 3.78 µM) | 0.13 ± 0.03 µg/mL (≈ 0.683 µM) | – |
| CC1=CC(=O)C=C(C2CCCCC2)C1=O [SG-007, 2-cyclohexyl-6-methylcyclohexa-2,5-diene-1,4-dione] | – | – | 7.40 | 0.52 ± 0.09 µg/mL (≈ 2.55 µM) | 0.07 ± 0.02 µg/mL (≈ 0.343 µM) | – |
| CC1=CC(=O)C(C2CCCCC2)=CC1=O [SG-008, 2-cyclohexyl-5-methylcyclohexa-2,5-diene-1,4-dione] | – | – | 42.50 | 2.55 ± 0.2 µg/mL (≈ 12.5 µM) | 0.06 ± 0.01 µg/mL (≈ 0.294 µM) | – |
| CCC(C)(C)C1=CC(=O)C(C)=CC1=O [SG-010, 2-methyl-5-(tert-pentyl)cyclohexa-2,5-diene-1,4-dione] | – | – | 37.50 | 4.51 ± 0.47 µg/mL (≈ 23.5 µM) | 0.12 ± 0.02 µg/mL (≈ 0.624 µM) | shows leishmanicidal activity |
| CCC(C)(CC)C1=CC(=O)C(C)=CC1=O [SG-011, 2-methyl-5-(3-methylpentan-3-yl)cyclohexa-2,5-diene-1,4-dione] | – | – | 13.80 | 12.3 ± 0.77 µg/mL (≈ 59.5 µM) | 0.89 ± 0.06 µg/mL (≈ 4.31 µM) | – |
| CC1=CC(=O)C(C23CC4CC(CC(C4)C2)C3)=CC1=O [SG-012, 2-((3r,5r,7r)-adamantane-1-yl)-5-methylcyclohexa-2,5-diene-1,4-dione] | – | – | 9.75 | 0.78 ± 0.02 µg/mL (≈ 3.04 µM) | 0.08 ± 0.01 µg/mL (≈ 0.312 µM) | – |
| CC1=CC(=O)C(C2CCCCCC2)=CC1=O [SG-013, 2-cycloheptyl-5-methylcyclohexa-2,5-diene-1,4-dione] | – | – | 7.10 | 0.92 ± 0.05 µg/mL (≈ 4.21 µM) | 0.09 µg/mL (≈ 0.412 µM) | – |
| CC1=CC(=O)C=C(C2CCCCCC2)C1=O [SG-014, 2-cycloheptyl-6-methylcyclohexa-2,5-diene-1,4-dione] | – | – | 24.20 | 8.95 ± 1.75 µg/mL (≈ 41 µM) | 0.7 ± 0.02 µg/mL (≈ 3.21 µM) | – |
